Patent publication US20200306210A1 (ZOGENIX INTERNATIONAL LIMITED, priority 2017, published 2020)
Counter-ions that a name gives are not always drawn.

Tested on: subjects with Dravet syndrome
Experiment: Study 1503: open-label long-term extension, CGI-I at baseline and final visit
Assay type: in vivo, Human
Experimental: Study 1503 was an open-label, long-term safety study of ZX008 in subjects with Dravet syndrome who successfully completed 14 weeks of treatment in 1501, 1502, or 1504 Cohorts 1 and 2. […] CGI-S(baseline scores) were determined at entry into 1503 (i.e., after completing a blinded 16 week trial) and then again at each patient's final visit. FIGS. 7 and 8, and Tables 3 and 4 present numbers of patients having each of the 7 ratings and statistical calculations of improvements.
The CGI scale measures the change in the subject's clinical status from a specific point in time, i.e., the Baseline Period (and also referred to as the CGI-S, an initial ranking of severity). The CGI rating scale permits a global evaluation of the subject's improvement over time.

## CCNC(C)Cc1cccc(C(F)(F)F)c1 (stereo not drawn) [ZX008, fenfluramine hydrochloride]
OLE Baseline
  CGI-I investigator, 1 = Very much improved, % of subjects: (15.8) %
  CGI-I investigator, 1 = Very much improved, N of subjects: 35
  CGI-I investigator, 2 = Much improved, % of subjects: (24.4) %
  CGI-I investigator, 2 = Much improved, N of subjects: 54
  CGI-I investigator, 3 = Minimally improved, % of subjects: (20.8) %
  CGI-I investigator, 3 = Minimally improved, N of subjects: 46
  CGI-I investigator, 4 = No change, % of subjects: (32.6) %
  CGI-I investigator, 4 = No change, N of subjects: 72
  CGI-I investigator, 5 = Minimally worse, % of subjects: (5.0) %
  CGI-I investigator, 5 = Minimally worse, N of subjects: 11
  CGI-I investigator, 6 = Much worse, % of subjects: (1.4) %
  CGI-I investigator, 6 = Much worse, N of subjects: 3
  CGI-I investigator, 7 = Very much worse, % of subjects: (0.0) %
  CGI-I investigator, 7 = Very much worse, N of subjects: 0
  CGI-I investigator, Improved (1, 2, 3), %: (61.1) %
  CGI-I investigator, Much/very much improved (1, 2), %: (40.3) %
  CGI-I parent/caregiver, 1 = Very much improved, % of subjects: (16.4) %
  CGI-I parent/caregiver, 1 = Very much improved, number of subjects: 37
  CGI-I parent/caregiver, 2 = Much improved, % of subjects: (21.8) %
  CGI-I parent/caregiver, 2 = Much improved, number of subjects: 49
  CGI-I parent/caregiver, 3 = Minimally improved, % of subjects: (19.1) %
  CGI-I parent/caregiver, 3 = Minimally improved, number of subjects: 43
  CGI-I parent/caregiver, 4 = No change, % of subjects: (26.7) %
  CGI-I parent/caregiver, 4 = No change, number of subjects: 60
  CGI-I parent/caregiver, 5 = Minimally worse, % of subjects: (10.7) %
  CGI-I parent/caregiver, 5 = Minimally worse, number of subjects: 24
  CGI-I parent/caregiver, 6 = Much worse, % of subjects: (4.0) %
  CGI-I parent/caregiver, 6 = Much worse, number of subjects: 9
  CGI-I parent/caregiver, 7 = Very much worse, % of subjects: (1.3) %
  CGI-I parent/caregiver, 7 = Very much worse, number of subjects: 3
  CGI-I parent/caregiver, Improved (1, 2, 3), %: (57.3) %
  CGI-I parent/caregiver, Much/very much improved (1, 2), %: (38.2) %
OLE Baseline, N 221, 7-point scale
  CGI-I investigator rating, Median: 3.0
OLE Baseline, N 221, scale 1 very much improved to 7 very much worse
  CGI-I investigator rating, Mean: 2.9
OLE Baseline, N 225, 7-point scale
  CGI-I parent/caregiver rating, Median: 3.0
OLE Baseline, N 225, scale 1 very much improved to 7 very much worse
  CGI-I parent/caregiver rating, Mean: 3.1
OLE Final Visit
  CGI-I investigator, 1 = Very much improved, % of subjects: (27.6) %
  CGI-I investigator, 1 = Very much improved, N of subjects: 70
  CGI-I investigator, 2 = Much improved, % of subjects: (36.6) %
  CGI-I investigator, 2 = Much improved, N of subjects: 93
  CGI-I investigator, 3 = Minimally improved, % of subjects: (21.3) %
  CGI-I investigator, 3 = Minimally improved, N of subjects: 54
  CGI-I investigator, 4 = No change, % of subjects: (7.9) %
  CGI-I investigator, 4 = No change, N of subjects: 20
  CGI-I investigator, 5 = Minimally worse, % of subjects: (5.5) %
  CGI-I investigator, 5 = Minimally worse, N of subjects: 14
  CGI-I investigator, 6 = Much worse, % of subjects: (1.2) %
  CGI-I investigator, 6 = Much worse, N of subjects: 3
  CGI-I investigator, 7 = Very much worse, % of subjects: (0.0) %
  CGI-I investigator, 7 = Very much worse, N of subjects: 0
  CGI-I investigator, Improved (1, 2, 3), %: (85.4) %
  CGI-I investigator, Much/very much improved (1, 2), %: (64.2) %
  CGI-I parent/caregiver, 1 = Very much improved, % of subjects: (27.0) %
  CGI-I parent/caregiver, 1 = Very much improved, number of subjects: 67
  CGI-I parent/caregiver, 2 = Much improved, % of subjects: (35.5) %
  CGI-I parent/caregiver, 2 = Much improved, number of subjects: 88
  CGI-I parent/caregiver, 3 = Minimally improved, % of subjects: (19.8) %
  CGI-I parent/caregiver, 3 = Minimally improved, number of subjects: 49
  CGI-I parent/caregiver, 4 = No change, % of subjects: (7.7) %
  CGI-I parent/caregiver, 4 = No change, number of subjects: 19
  CGI-I parent/caregiver, 5 = Minimally worse, % of subjects: (5.2) %
  CGI-I parent/caregiver, 5 = Minimally worse, number of subjects: 13
  CGI-I parent/caregiver, 6 = Much worse, % of subjects: (4.0) %
  CGI-I parent/caregiver, 6 = Much worse, number of subjects: 10
  CGI-I parent/caregiver, 7 = Very much worse, % of subjects: (0.8) %
  CGI-I parent/caregiver, 7 = Very much worse, number of subjects: 2
  CGI-I parent/caregiver, Improved (1, 2, 3), %: (82.3) %
  CGI-I parent/caregiver, Much/very much improved (1, 2), %: (62.5) %
OLE Final Visit, n 248, 7-point scale
  CGI-I parent/caregiver rating, Median: 2.0
OLE Final Visit, n 248, scale 1 very much improved to 7 very much worse
  CGI-I parent/caregiver rating, Mean: 2.4
OLE Final Visit, n 254, 7-point scale
  CGI-I investigator rating, Median: 2.0
OLE Final Visit, n 254, scale 1 very much improved to 7 very much worse
  CGI-I investigator rating, Mean: 2.3
